For 59 compounds, RP-LC retention time results are on record in the METLIN SMRT retention time set (Domingo-Almenara et al. 2019).

SMILES strings stand for the structures.

A short description of this series: gradient 5% acetonitrile 3 min, to 50% in 2 min, to 85% in 15 min, held 3 min, 100 µL/min. The note with it: column: Zorbax Extend-C18 2.1 x 50 mm; eluents: water / acetonitrile, 0.1% formic acid. In a few lines: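 Retention times of pure standards were taken from adduct peaks that were selected by computer and manually inspected. Over 3 months, mixtures of ~100 molecules were run by HPLC–quadrupole time-of-flight mass spectrometry in positive and negative ionization mode. The Zorbax Extend-C18 column (2.1 × 50 mm, 1.8 μm) ran at 100 μL/min in water and acetonitrile, each containing 0.1% formic acid, with 40 μL dead volume and 900 μL dwell volume.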
Compound `O=C(Nc1ccc(C(F)(F)F)cc1)NC1CCN(c2ccc(F)cc2)C1=O` (centres undefined) had an RP-LC retention time of 920 s. Then `O=C(NCc1cc(F)cc(F)c1)C1CCc2nc(N3CCCCC3)ncc2C1` (centres undefined), with 778 s; and `NC(=O)C1CCN(C(=O)C2CCN(S(=O)(=O)Cc3ccc(F)cc3)CC2)CC1`, with 644 s. In turn, `CC1CCN(Cc2nc(-c3ccc(N4CCCC(C)C4)nc3)no2)CC1` (centres undefined) displayed an RP-LC retention time of 695 s.

`COc1ccc2c(c1)CC(C(=O)NCc1ccc(OC)cc1OC)CO2` (centres undefined): the RP-LC retention time was found to be 894 s. Consider `COC(=O)Nc1nc2ccc(S(=O)c3ccccc3)cc2[nH]1` (centres undefined), for which the RP-LC retention time is 658 s. Compound `Cc1ccc(C2NC(=O)N(CC(=O)Nc3ccccc3F)C3=C2C(=O)OC3)cc1` (centres undefined) showed an RP-LC retention time of 786 s. As for `Cc1nc2cccnc2n1CCN1CCN(C(=O)Nc2cccc(Cl)c2)CC1`, the figure is 604 s. The compound `CS(=O)(=O)N1CCCC(C(=O)NCCC2=CCCCC2)CCNC(=O)CC1` (centres undefined) came in with an RP-LC retention time of 690 s.

`Cc1cc(OCC(=O)Nc2ccc(F)cc2Cl)nc(N2CCN(c3ccccc3)CC2)n1` had an RP-LC retention time of 976 s. Consider `CCc1ccc(CNC(=O)c2cccc(C3CCCN(C(=O)NC)C3)c2)cc1` (centres undefined), for which the RP-LC retention time turned out to be 854 s. As for `Cc1ccc(NC(=O)Cn2c(=O)cc(-c3nc(C)no3)c3ccccc32)c(C)c1`, the RP-LC retention time amounted to 972 s.

`COC(=O)C1=CN(c2cccc(C#N)c2)c2cc(F)ccc2S1(=O)=O` gave an RP-LC retention time of 763 s. `Cc1noc(C)c1-c1ccc(S(=O)(=O)N2CCN(c3ccccn3)CC2)cc1`: the RP-LC retention time turned out to be 676 s. As for `COc1ccc(NC(=O)N(C)CCc2noc(COc3ccc(F)cc3)n2)c(OC)c1`, the figure is 837 s; as for `Cc1oc2c(c1C(=O)NCc1ccc(F)c(F)c1)C1=NC(C)(C)CN1C=N2`, 666 s. As for `O=C(C1CCN(S(=O)(=O)N2CCOCC2)CC1)N1CCCC(c2nc(C3CCOCC3)no2)C1` (centres undefined), the figure is 700 s; as for `CC(C)c1noc(-c2ccn3c(CC(=O)NC4CCCCCC4)nnc3c2)n1`, 823 s; as for `CCCC(C)NC(=O)CN1c2ccc(F)cc2-c2ccccc2S1(=O)=O` (centres undefined), 950 s. Then `CCn1cc(S(=O)(=O)Nc2ccccc2OC)c2cccnc21`, with 831 s; and `Cn1cc(S(=O)(=O)N2CCC(C(=O)NC3CCCCCCC3)CC2)cc1C(=O)N1CCCC1`, with 844 s. The compound `COc1ccc(C(C)NC(=O)c2cnn3c(-c4ccc5c(c4)OCO5)ccnc23)cc1OC` (centres undefined) showed an RP-LC retention time of 875 s. As for `O=S(=O)(c1ccccc1-c1nc(-c2ccccc2)no1)N1CCN(C2CCCCC2)CC1`, the figure is 755 s; as for `CCCCOc1cccc(C(=O)N(Cc2ccc(C)o2)C2CCS(=O)(=O)C2)c1` (centres undefined), 1030 s; as for `C[C@@H](NC(=O)c1ccc(Cl)cc1)C(=O)NCc1cscn1`, 673 s. Then `CCOC(=O)Cc1csc(NC(=O)Cn2nc3c(cc2=O)CCCC3)n1`, with 718 s. As for `COc1ccc(CNC(=O)c2cc3c(-c4cccs4)nn(-c4ccccc4)c3n2C)cc1`, the figure is 1120 s; as for `CC1CCCCN1CCNC(=O)c1ccc2ccnc(N3CCN(c4ccc(Cl)cc4)CC3)c2c1` (centres undefined), 664 s. With `CN(C)c1ccc(CNc2ccc(-c3nc(-c4cccc(F)c4)no3)cn2)cc1`, the RP-LC retention time came out at 912 s.

Take `O=S1(=O)C[C@H](N2CCN(c3cccc(Cl)c3)CC2)[C@@H](S(=O)(=O)c2ccc(F)cc2)C1`: the RP-LC retention time amounted to 1040 s.

Compound `Cn1c(=O)c2ccn(CC(=O)NCCCc3ccccc3)c2n(C)c1=O` had an RP-LC retention time of 699 s. As for `O=C(c1ccc2nc(-c3ccccc3)cn2c1)N1CCOCC1`, the figure is 580 s; as for `O=C(C(=O)N1CCN(C2CCCCC2)CC1)c1ccc[nH]1`, 588 s. Then `CN(C)c1nccnc1OC1CCN(C(=O)c2ccnn2C)C1` (centres undefined), with 634 s. The compound `CCc1nccn1Cc1nc(-c2ccc(Br)cc2)no1` yielded an RP-LC retention time of 677 s. As to `COc1ccc(NC(=O)Cc2csc3nc(-c4ccccc4)cn23)cc1OC`, the RP-LC retention time is 703 s.

Turning to `O=C(NCc1ccc(F)cc1Cl)C1=C2CCCN2c2ccc(F)cc2S1(=O)=O`, the RP-LC retention time amounted to 933 s.

Take `Cc1nc(-c2ccc(F)cc2)sc1C(=O)N1CCC(CC(=O)N(C)Cc2ccco2)CC1`: the RP-LC retention time came to 890 s. On to `Cn1nc(C(=O)NC2CCCN(c3cc(-c4ccc(Cl)cc4)[nH]n3)C2)c2ccccc21` (centres undefined), for which the RP-LC retention time came out at 935 s.

`OCC1CN(c2ncccn2)CC12CCN(Cc1ccc3[nH]ccc3c1)CC2` (centres undefined) registered an RP-LC retention time of 577 s. The compound `Cc1ccccc1CNC(=O)c1ncn2c1C(=O)N(C1CC1)C(C)(C(=O)NCc1ccc(F)cc1)C2` (centres undefined) showed an RP-LC retention time of 798 s. As for `CCN(Cc1ccccc1)C(=O)Cn1c(N2CCCC2)nc(C)cc1=O`, the figure is 660 s; as for `COC(=O)c1cc(C2CC2)nc2c1c(=O)n(Cc1cccc(C)c1)c(=O)n2C`, 1090 s. Then `COc1cccc(Cc2nc(-c3cccc(-c4ccnn4C)c3)no2)c1`, with 1010 s; and `Cc1ccnc(Nc2nc(CC(=O)NCCc3cccs3)cs2)c1`, with 581 s; and `CCS(=O)(=O)Nc1cc(-c2nnc(C(C)C)o2)sc1C`, with 863 s.

Consider `CNCCC(Oc1ccccc1C)c1ccccc1` (centres undefined), for which the RP-LC retention time was 778 s. Then `COC(=O)c1cnc(N2CCN(c3ccc(F)cc3)CC2)c2ccccc12`, with 1190 s. Then `CC(C(=O)N1CCN(c2ccccn2)CC1)C1CCN(C(=O)c2cc3cc(Cl)ccc3[nH]2)CC1` (centres undefined), with 675 s; and `CCc1ccc(-c2cc(C(=O)N3CCN(c4ncccn4)CC3)c3ccccc3n2)s1`, with 1090 s; and `COc1ccc(-c2cn3ccn(-c4ccc(OC)c(Cl)c4)c(=O)c3n2)cc1`, with 1240 s.

In turn, `COC(=O)c1ccc(NC(=O)CSc2nnc(-c3cccs3)o2)cc1` returned an RP-LC retention time of 648 s. The compound `CCOc1ccccc1-c1noc(Cn2c(=O)n(-c3ccc(F)cc3)c(=O)c3sccc32)n1` displayed an RP-LC retention time of 956 s. Then `COCCNC(=O)c1nnc(-c2ccc(S(=O)(=O)N(C)C)cc2)o1`, with 687 s; and `O=C(NCc1cccnc1)C1CCN(c2nnc3ccc(C(F)(F)F)cn23)CC1`, with 536 s.

`O=C(c1ccco1)N1CCC(c2nc(-c3ccccc3)no2)C1` (centres undefined): the RP-LC retention time was 822 s. As for `COc1ccc(C2Cn3nnc(C(=O)N4CCN(C(=O)c5cc(F)ccc5F)CC4)c3CO2)cc1` (centres undefined), the figure is 872 s; as for `COc1cc(OC)c(NC(=O)COc2nc(C)nc3ccccc23)cc1Cl`, 771 s; as for `Cc1cccc(NC(=O)Cn2nc(N3CCCC3)c3ccccc3c2=O)c1`, 960 s.
